Measurements as given in PubChem BioAssay AID256 (DTP/NCI, 2004).
Toxic doses and inconclusive results are not listed. Rule for the calls: active = survival T/C of 150% or more; inactive = T/C below 125% in these data.

Tested on: CD2F1 mice, L1210 leukemia ip, survival T/C
Assay: NCI In Vivo Anticancer Drug Screen. Data for tumor model L1210 Leukemia (intraperitoneal) in CD2F1 (CDF1) mice
Conditions: higher = longer survival
Summary of the method: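 Tumor-bearing mice (transplanted tumor) were split into treated and vehicle control groups, and the measured endpoint of each treated group was divided by that of its vehicle controls.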

[1] = endpoint: mean survival time, dose: 100.0 mg/kg/injection, schedule: Q04DX003 (ip), vehicle: saline with Tween-80
[2] = endpoint: mean survival time, dose: 200.0 mg/kg/injection, schedule: Q04DX003 (ip), vehicle: saline with Tween-80
[3] = endpoint: mean survival time, dose: 400.0 mg/kg/injection, schedule: Q04DX003 (ip), vehicle: saline with Tween-80
[4] = endpoint: mean survival time, dose: 100.0 mg/kg/injection, schedule: Q01DX001 (ip), vehicle: saline with Tween-80
[5] = endpoint: mean survival time, dose: 200.0 mg/kg/injection, schedule: Q01DX001 (ip), vehicle: saline with Tween-80
[6] = endpoint: mean survival time, dose: 400.0 mg/kg/injection, schedule: Q01DX001 (ip), vehicle: saline with Tween-80
[7] = endpoint: mean survival time, dose: 100.0 mg/kg/injection, schedule: Q01DX001 (ip), vehicle: saline
[8] = endpoint: mean survival time, dose: 200.0 mg/kg/injection, schedule: Q01DX001 (ip), vehicle: saline
[9] = endpoint: mean survival time, dose: 400.0 mg/kg/injection, schedule: Q01DX001 (ip), vehicle: saline
[10] = endpoint: mean survival time, dose: 100.0 mg/kg/injection, schedule: Q04DX003 (ip), vehicle: saline
[11] = endpoint: mean survival time, dose: 100.0 mg/kg/injection, schedule: Q01DX009 (ip), vehicle: saline with Tween-80
[12] = endpoint: mean survival time, dose: 200.0 mg/kg/injection, schedule: Q01DX009 (ip), vehicle: saline with Tween-80
[13] = endpoint: mean survival time, dose: 400.0 mg/kg/injection, schedule: Q01DX009 (ip), vehicle: saline with Tween-80
[14] = endpoint: mean survival time, dose: 25.0 mg/kg/injection, schedule: Q01DX009 (ip), vehicle: other
[15] = endpoint: mean survival time, dose: 100.0 mg/kg/injection, schedule: Q01DX009 (ip), vehicle: other
[16] = endpoint: mean survival time, dose: 200.0 mg/kg/injection, schedule: Q01DX009 (ip), vehicle: other
[17] = endpoint: mean survival time, dose: 400.0 mg/kg/injection, schedule: Q01DX009 (ip), vehicle: other
[18] = endpoint: mean survival time, dose: 200.0 mg/kg/injection, schedule: Q04DX003 (ip), vehicle: saline
[19] = endpoint: mean survival time, dose: 400.0 mg/kg/injection, schedule: Q04DX003 (ip), vehicle: saline

Measured: T/C

CCCCCCCCCCCCCCCCCC(=O)CC
inactive: endpoint: mean survival time, dose: 100.0 mg/kg/injection, schedule: Q04DX002 (ip), vehicle: saline + alcohol 93 % of control | endpoint: mean survival time, dose: 200.0 mg/kg/injection, schedule: Q04DX002 (ip), vehicle: saline + alcohol 93 % of control | endpoint: mean survival time, dose: 400.0 mg/kg/injection, schedule: Q04DX002 (ip), vehicle: saline + alcohol 93 % of control

NC(=S)NC(=O)c1ccccc1
inactive: [1] 94 % of control | [2] 94 % of control | [3] 94 % of control

CCOC(=O)Cc1cnc(SC)nc1Nc1ccc(C)cc1
inactive: [4] 97 % of control | [5] 108 % of control | [6] 106 % of control

Cc1nc(-c2ccccc2)c(Cc2ccccc2O)c(=O)[nH]1
inactive: [7] 97 % of control | [8] 97 % of control | [9] 100 % of control

CCCCCCCCCCCCCCCCCCOCC(COP(=O)([O-])OCC[N+](C)(C)C)OC (centres undefined)
inactive: endpoint: median survival time, dose: 6.25 mg/kg/injection, schedule: Q01DX009 (ip), vehicle: suspension in saline 98 % of control | endpoint: median survival time, dose: 12.5 mg/kg/injection, schedule: Q01DX009 (ip), vehicle: suspension in saline 93 % of control | endpoint: median survival time, dose: 25.0 mg/kg/injection, schedule: Q01DX009 (ip), vehicle: suspension in saline 104 % of control | endpoint: median survival time, dose: 50.0 mg/kg/injection, schedule: Q01DX009 (ip), vehicle: suspension in saline 88 % of control

C1C2CC3CC3CC12 (centres undefined)
inactive: [1] 93 % of control

CC1(C)C2CCC1(C)C(OCCCN=C(N)CSS(=O)(=O)O)C2 (centres undefined)
inactive: endpoint: mean survival time, dose: 9.4 mg/kg/injection, schedule: Q04DX002 (ip), vehicle: saline with Tween-80 95 % of control | endpoint: mean survival time, dose: 18.7 mg/kg/injection, schedule: Q04DX002 (ip), vehicle: saline with Tween-80 109 % of control | endpoint: mean survival time, dose: 37.5 mg/kg/injection, schedule: Q04DX002 (ip), vehicle: saline with Tween-80 112 % of control

CCCN(CCC)c1ccc(C#N)cc1
inactive: endpoint: mean survival time, dose: 100.0 mg/kg/injection, schedule: Q04DX003 (ip), vehicle: Klucel (hydroxypropylcellulose) (HPC) 91 % of control | endpoint: mean survival time, dose: 200.0 mg/kg/injection, schedule: Q04DX003 (ip), vehicle: Klucel (hydroxypropylcellulose) (HPC) 92 % of control | endpoint: mean survival time, dose: 400.0 mg/kg/injection, schedule: Q04DX003 (ip), vehicle: Klucel (hydroxypropylcellulose) (HPC) 95 % of control

CCOC(OCC)c1cc[n+](CCc2ccc(OC)c(OC)c2)cc1
inactive: [10] 96 % of control

C=C(C)CSc1ccccc1
inactive: endpoint: mean survival time, dose: 5.0 mg/kg/injection, schedule: Q01DX001 (ip), vehicle: saline 97 % of control | endpoint: mean survival time, dose: 10.0 mg/kg/injection, schedule: Q01DX001 (ip), vehicle: saline 97 % of control | endpoint: mean survival time, dose: 20.0 mg/kg/injection, schedule: Q01DX001 (ip), vehicle: saline 97 % of control | endpoint: mean survival time, dose: 40.0 mg/kg/injection, schedule: Q01DX001 (ip), vehicle: saline 97 % of control | endpoint: mean survival time, dose: 80.0 mg/kg/injection, schedule: Q01DX001 (ip), vehicle: saline 97 % of control | [7] 95 % of control | [8] 103 % of control

c1ccc([I+]c2ccccc2)cc1
inactive: endpoint: mean survival time, dose: 0.65 mg/kg/injection, schedule: Q01DX009 (ip), vehicle: saline with Tween-80 98 % of control | endpoint: mean survival time, dose: 1.3 mg/kg/injection, schedule: Q01DX009 (ip), vehicle: saline with Tween-80 98 % of control | endpoint: mean survival time, dose: 2.5 mg/kg/injection, schedule: Q01DX009 (ip), vehicle: saline sonified 103 % of control | endpoint: mean survival time, dose: 2.5 mg/kg/injection, schedule: Q01DX009 (ip), vehicle: saline with Tween-80 98 % of control | endpoint: mean survival time, dose: 2.5 mg/kg/injection, schedule: Q04DX003 (ip), vehicle: saline with Tween-80 95 % of control | endpoint: mean survival time, dose: 5.0 mg/kg/injection, schedule: Q01DX009 (ip), vehicle: saline sonified 94 % of control | endpoint: mean survival time, dose: 5.0 mg/kg/injection, schedule: Q04DX003 (ip), vehicle: saline with Tween-80 104 % of control | endpoint: mean survival time, dose: 5.0 mg/kg/injection, schedule: Q04DX003 (ip), vehicle: saline 98 % of control | endpoint: mean survival time, dose: 10.0 mg/kg/injection, schedule: Q04DX003 (ip), vehicle: saline with Tween-80 103 % of control | endpoint: mean survival time, dose: 10.0 mg/kg/injection, schedule: Q04DX003 (ip), vehicle: saline 97 % of control | endpoint: mean survival time, dose: 20.0 mg/kg/injection, schedule: Q04DX003 (ip), vehicle: saline 115 % of control

O=S(O)C(=NC1CCCCC1)NC1CCCCC1
inactive: [11] 90 % of control | [12] 90 % of control | [13] 105 % of control

O=c1cc(O)c(Cl)n[nH]1
inactive: [14] 94 % of control | endpoint: mean survival time, dose: 50.0 mg/kg/injection, schedule: Q01DX009 (ip), vehicle: other 94 % of control | [15] 97 % of control | [16] 92 % of control | [17] 88 % of control

O=C(Nc1cccnc1)c1cccc([N+](=O)[O-])c1
inactive: endpoint: mean survival time, dose: 25.0 mg/kg/injection, schedule: Q01DX009 (ip), vehicle: Klucel (hydroxypropylcellulose) (HPC) 108 % of control | endpoint: mean survival time, dose: 25.0 mg/kg/injection, schedule: Q04DX002 (ip), vehicle: Klucel (hydroxypropylcellulose) (HPC) 97 % of control | endpoint: mean survival time, dose: 50.0 mg/kg/injection, schedule: Q01DX009 (ip), vehicle: Klucel (hydroxypropylcellulose) (HPC) 110 % of control | endpoint: mean survival time, dose: 50.0 mg/kg/injection, schedule: Q04DX002 (ip), vehicle: Klucel (hydroxypropylcellulose) (HPC) 102 % of control | endpoint: mean survival time, dose: 100.0 mg/kg/injection, schedule: Q01DX009 (ip), vehicle: Klucel (hydroxypropylcellulose) (HPC) 93 % of control | endpoint: mean survival time, dose: 100.0 mg/kg/injection, schedule: Q04DX002 (ip), vehicle: Klucel (hydroxypropylcellulose) (HPC) 97 % of control | endpoint: mean survival time, dose: 200.0 mg/kg/injection, schedule: Q01DX009 (ip), vehicle: Klucel (hydroxypropylcellulose) (HPC) 92 % of control | endpoint: mean survival time, dose: 200.0 mg/kg/injection, schedule: Q04DX002 (ip), vehicle: Klucel (hydroxypropylcellulose) (HPC) 96 % of control

C(/C=C/c1ccccc1)=Nc1ccc(CCc2ccc(N=C/C=C/c3ccccc3)cc2)cc1
inactive: [4] 103 % of control | [5] 93 % of control | [6] 91 % of control

Nc1nc(N)c(N=Nc2ccc(SCC(=O)O)cc2)c(N)n1
inactive: [1] 102 % of control | [2] 104 % of control | [3] 95 % of control

NC/C(=N\O)c1ccc(Cl)cc1
inactive: [7] 97 % of control | [8] 103 % of control

CCOC(=O)C(CCC(=O)O)NC(=O)OCc1ccccc1 (centres undefined)
inactive: [1] 97 % of control | [2] 99 % of control | [3] 91 % of control

CC1CN(CCC#N)CC(C)O1 (centres undefined)
inactive: endpoint: mean survival time, dose: 100.0 mg/kg/injection, schedule: Q01DX009 (ip), vehicle: saline 105 % of control | [10] 95 % of control | endpoint: mean survival time, dose: 200.0 mg/kg/injection, schedule: Q01DX009 (ip), vehicle: saline 104 % of control | [18] 104 % of control | endpoint: mean survival time, dose: 400.0 mg/kg/injection, schedule: Q01DX009 (ip), vehicle: saline 104 % of control | [19] 104 % of control

O=C(Nc1c(Cl)cccc1Cl)OCCOc1ccc(Cl)cc1
inactive: endpoint: mean survival time, dose: 50.0 mg/kg/injection, schedule: Q01DX009 (ip), vehicle: saline with Tween-80 94 % of control | [11] 105 % of control | [12] 105 % of control

O=C(c1ccc(F)cc1)c1ccccc1Cl
inactive: [11] 102 % of control | [1] 105 % of control | [12] 97 % of control | [2] 98 % of control | [13] 97 % of control | [3] 98 % of control

O=NN(c1ccccc1)c1ccc([N+](=O)[O-])cc1
inactive: [11] 95 % of control | [1] 92 % of control | [12] 90 % of control | [2] 97 % of control | [3] 98 % of control

CN1C(=O)/C(=C/c2cccs2)SC1=S
inactive: [7] 95 % of control | [8] 98 % of control | [9] 103 % of control

O=C(C=C(C(F)(F)F)C(F)(F)F)c1ccc(Br)cc1
inactive: endpoint: mean survival time, dose: 12.5 mg/kg/injection, schedule: Q01DX009 (ip), vehicle: other 107 % of control | [14] 110 % of control | endpoint: mean survival time, dose: 100.0 mg/kg/injection, schedule: Q04DX003 (ip), vehicle: other 105 % of control

CC(=O)Oc1c(Br)cc(Br)cc1-c1ccccc1
inactive: [7] 95 % of control | [10] 117 % of control | [8] 94 % of control | [18] 105 % of control | [9] 101 % of control | [19] 114 % of control

COc1cc(/C=C2/CCCCC2=O)ccc1O
inactive: [15] 104 % of control | [16] 98 % of control | [17] 98 % of control
